The results in this text go back to US8158794B2, “Hydroxyalkyl substituted imidazoquinoline compounds and methods” (3M Innovative Properties Company, priority 2005, dated 2012).

Where a name gives a salt, the structure may show the parent alone.

For one data set, the system named is interferon (α) (IFN-α). Put plainly: Cytokine induction in human cells: IFN-α secreted by PBMC (ELISA). The format is cell-based. As to conditions: 18 to 24 hours, lowest tested concentration inducing response over 20 pg/mL, median if more than one experiment, read-out: Minimum Effective Concentration (μM) IFN. From the text: (§1) An in vitro human blood cell system is used to assess cytokine induction. Activity is based on the measurement of interferon (α) and tumor necrosis factor (α) (IFN-α and TNF-α, respectively) secreted into culture media as described by Testerman et. al. in “Cytokine Induction by the Immunomodulators Imiquimod and S-27609”, Journal of Leukocyte Biology, 58, 365-372 (September, 1995).
(§2) Whole blood from healthy human donors is collected by venipuncture into vacutainer tubes or syringes containing EDTA. Peripheral blood mononuclear cells (PBMC) are separated from whole blood by density gradient centrifugation using HISTOPAQUE-1077 (Sigma, St. Louis, Mo.) or Ficoll-Paque Plus (Amersham Biosciences Piscataway, N.J.). Blood is diluted 1:1 with Dulbecco's Phosphate Buffered Saline (DPBS) or Hank's Balanced Salts Solution (HBSS). Alternately, whole blood is placed in Accuspin (Sigma) or LeucoSep (Greiner Bio-One, Inc., Longwood, Fla.) centrifuge frit tubes containing density gradient medium. The PBMC layer is collected and washed twice with DPBS or HBSS and re-suspended at 4×10^6 cells/mL in RPMI complete. The PBMC suspension is added to 96 well flat bottom sterile tissue culture plates containing an equal volume of RPMI complete media containing test compound.
(§3) The compounds are solubilized in dimethyl sulfoxide (DMSO). The DMSO concentration should not exceed a final concentration of 1% for addition to the culture wells. The compounds are generally tested at concentrations ranging from 30-0.014 μM. Controls include cell samples with media only, cell samples with DMSO only (no compound), and cell samples with reference compound.
(§4) The solution of test compound is added at 60 μM to the first well containing RPMI complete and serial 3 fold dilutions are made in the wells. The PBMC suspension is then added to the wells in an equal volume, bringing the test compound concentrations to the desired range (usually 30-0.014 μM). The final concentration of PBMC suspension is 2×10^6 cells/mL. The plates are covered with sterile plastic lids, mixed gently and then incubated for 18 to 24 hours at 37° C. in a 5% carbon dioxide atmosphere.
(§5) Following incubation the plates are centrifuged for 10 minutes at 1000 rpm (approximately 200×g) at 4° C. The cell-free culture supernatant is removed and transferred to sterile polypropylene tubes. Samples are maintained at −30 to −70° C. until analysis. The samples are analyzed for IFN-α by ELISA and for TNF-α by IGEN/BioVeris Assay.
IFN-α concentration is determined with a human multi-subtype colorimetric sandwich ELISA (Catalog Number 41105) from PBL Biomedical Laboratories, Piscataway, N.J. Results are expressed in pg/mL.
(§6) In total, the data output of the assay consists of concentration values of TNF-α and IFN-α(y-axis) as a function of compound concentration (x-axis).
Analysis of the data has two steps. First, the greater of the mean DMSO (DMSO control wells) or the experimental background (usually 20 pg/mL for IFN-α and 40 pg/mL for TNF-α) is subtracted from each reading. If any negative values result from background subtraction, the reading is reported as “*”, and is noted as not reliably detectable. In subsequent calculations and statistics, “*”, is treated as a zero. Second, all background subtracted values are multiplied by a single adjustment ratio to decrease experiment to experiment variability. The adjustment ratio is the area of the reference compound in the new experiment divided by the expected area of the reference compound based on the past 61 experiments (unadjusted readings). […] The reference compound used is 2-[4-amino-2-ethoxymethyl-6,7,8,9-tetrahydro-α,α-dimethyl-1H-imidazo[4,5-c]quinolin-1-yl]ethanol hydrate (U.S. Pat. No. 5,352,784; Example 91) and the expected area is the sum of the median dose values from the past 61 experiments.
The minimum effective concentration is calculated based on the background-subtracted, reference-adjusted results for a given experiment and compound. […]
Background: In an ELISA, binding on a coated surface is turned into a signal by an enzyme label.

Data set [1] has as its system tumor necrosis factor (α) (TNF-α). Put plainly: Cytokine induction in human cells: TNF-α secreted by PBMC (ORIGEN M-Series immunoassay). The data set is classed as cell-based. To be noted: 18 to 24 hours, lowest tested concentration inducing response over 40 pg/mL, median if more than one experiment, read-out: Minimum Effective Concentration (μM) TNF.
Source text: as §1, §2, §3, §4, §5
The TNF-α concentration is determined by ORIGEN M-Series Immunoassay and read on an IGEN M-8 analyzer from BioVeris Corporation, formerly known as IGEN International, Gaithersburg, Md. The immunoassay uses a human TNF-α capture and detection antibody pair (Catalog Numbers AHC3419 and AHC3712) from Biosource International, Camarillo, Calif. Results are expressed in pg/mL.
as §6
Analysis of the data has two steps. First, the greater of the mean DMSO (DMSO control wells) or the experimental background (usually 20 pg/mL for IFN-α and 40 pg/mL for TNF-α) is subtracted from each reading. If any negative values result from background subtraction, the reading is reported as “*”, and is noted as not reliably detectable. In subsequent calculations and statistics, “*”, is treated as a zero. Second, all background subtracted values are multiplied by a single adjustment ratio to decrease experiment to experiment variability. The adjustment ratio is the area of the reference compound in the new experiment divided by the expected area of the reference compound based on the past 61 experiments (unadjusted readings). […]

A word on the melting point: it is the temperature, or range, at which the solid turns liquid. For the compound `CC(C)NC(=O)N1CCC(Cn2c(CO)nc3c(N)nc4cc(-c5cncc(CO)c5)ccc4c32)CC1` (as salt: HBr) [Example 46], the melting point was more than 300 °C.

With `Nc1nc2cc(-c3cccc(C(=O)N4CCOCC4)c3)ccc2c2c1nc(CO)n2CC1CCCCC1` (as salt: HCl) (hydrate or solvate) [Example 50], the melting point lay in the range of 260 to 264 °C.

`CC(C)(O)Cn1c(CO)nc2c(N)nc3cc(-c4cncc(CO)c4)ccc3c21` (hydrate or solvate) [Example 33]: the melting point is 180 to 182 °C.

Take `CC(C)C(=O)N1CCC(Cn2c(CO)nc3c(N)nc4cc(-c5cccnc5)ccc4c32)CC1` (hydrate or solvate) [Example 35]: the melting point lay in the range of 154 to 157 °C.

`CC(C)(O)Cn1c(CO)nc2c(N)nc3cc(-c4ccc(F)nc4)ccc3c21` (hydrate or solvate) [Example 37] registered a melting point of 111 to 114 °C.

In turn, `CS(=O)(=O)NCCCCn1c(CO)nc2c(N)nc3cc(-c4cccnc4)ccc3c21` (hydrate or solvate) [Example 38] returned a melting point of 188 to 190 °C.

In turn, `CCCNC(=O)NCCCCn1c(CO)nc2c(N)nc3cc(-c4cccnc4)ccc3c21` (hydrate or solvate) [Example 39] showed a melting point of 206 to 209 °C.

`CCCC(=O)NCCCCn1c(CO)nc2c(N)nc3cc(-c4cccnc4)ccc3c21` (hydrate or solvate) [Example 40] gave a melting point of 211 to 212 °C.

Compound `Nc1nc2cc(-c3cccnc3)ccc2c2c1nc(CO)n2CCCCNC(=O)NC1CCCC1` (hydrate or solvate) [Example 41] registered a melting point of 225 to 227 °C.

The compound `CC(C)C(=O)NCCCCn1c(CO)nc2c(N)nc3cc(-c4cccnc4)ccc3c21` (hydrate or solvate) [Example 43] yielded a melting point of 225 to 227 °C.

In turn, `Cc1cccc(-c2ccc3c(c2)nc(N)c2nc(CCO)n(CCCN4CCCC4=O)c23)c1` (hydrate or solvate) [Example 47] came in with a melting point of 218 to 221 °C.

On to `Nc1nc2cc(-c3ccccc3O)ccc2c2c1nc(CCO)n2CCCN1CCCC1=O` (hydrate or solvate) [Example 48], for which the melting point was more than 250 °C.

Turning to `Nc1nc2cc(-c3cncc(CO)c3)ccc2c2c1nc(CO)n2CC1CCCCC1` (hydrate or solvate) [Example 49], the melting point lay within 166 to 170 °C.

For `CC(C)(O)Cn1c(CO)nc2c(N)nc3cc(-c4cccnc4)ccc3c21` (hydrate or solvate) [Example 51], the melting point is 141 to 143 °C.

The compound `Nc1nc2cc(-c3cccnc3)ccc2c2c1nc(CO)n2CC1CCOCC1` [Example 32, [4-Amino-7-pyridin-3-yl-1-(tetrahydro-2H-pyran-4-ylmethyl)-1H-imidazo[4,5-c]quinolin-2-yl]methanol] gave a melting point of 260 to 262 °C.

`CS(=O)(=O)N1CCC(Cn2c(CO)nc3c(N)nc4cc(-c5cccnc5)ccc4c32)CC1` [Example 34] returned a melting point of 196 to 198 °C.

In turn, `CC(C)NC(=O)N1CCC(Cn2c(CO)nc3c(N)nc4cc(-c5cccnc5)ccc4c32)CC1` [Example 36] registered a melting point of 182 to 184 °C.

Consider `Nc1nc2cc(-c3cccnc3)ccc2c2c1nc(CO)n2CCCCNC(=O)C1CCCC1` [Example 42], for which the melting point was in the range of 241 to 242 °C. The minimal effective concentration with interferon (α) (IFN-α) was found to be 0.12 µM. For the same compound, the minimal effective concentration in data set [1] stood at 3.33 µM.

`Nc1nc2cc(-c3cccc(C(=O)N4CCCC4)c3)ccc2c2c1nc(CO)n2CC1CCOCC1` [Example 139, [4-Amino-7-[3-(pyrrolidin-1-ylcarbonyl)phenyl]-1-(tetrahydro-2H-pyran-4-ylmethyl)-1H-imidazo[4,5-c]quinolin-2-yl]methanol]: the melting point was 281 to 284 °C.
